Test results from the NIST ThermoML archive (doi:10.1016/j.jct.2005.03.006).

Conditions: Liquid, Buoyancy - hydrostatic balance

CCc1ccccc1 [ethylbenzene]
mass density [kg/m3]
Conditions | 292.25 K | 313.45 K | 336.55 K | 358.81 K | 382.95 K | 408.05 K | 434.45 K | 461.85 K | 490.15 K
100 kPa | 867 | 849.1 | 828.7 | 808.4 | – | – | – | – | –
5000 kPa | 870.8 | 853.1 | 833.6 | 814.5 | 793 | 770.4 | 746 | 718.6 | 687
9900 kPa | 874 | – | 838.5 | 820 | 799 | 777.3 | 754.4 | 728.8 | 700
19700 kPa | 881.3 | 864.4 | 845.8 | 827.6 | 808.1 | 788.5 | 768.1 | 746.2 | 720.9
29500 kPa | 887.1 | 871.4 | 854 | 836.8 | 818.2 | 799.7 | 780.5 | 760 | 737.2
39300 kPa | 893 | 877.6 | 860.9 | 844.8 | 827.1 | 809.5 | 791 | 771.7 | 750.7
49100 kPa | 898.5 | 883.6 | 867.8 | 852.4 | 835.1 | 817.9 | 800.4 | 782.3 | 762.9
58900 kPa | 903.8 | 889.4 | 873.6 | 858.6 | 842.5 | 826 | 808.6 | 791 | 773.2

CO [methanol]
mass density [kg/m3]
Conditions | 298.15 K | 323.15 K | 348.15 K | 373.15 K | 398.15 K | 423.15 K | 448.15 K | 473.15 K | 498.15 K
100 kPa | 792.6 | 770.3 | – | – | – | – | – | – | –
5000 kPa | 796.2 | 774.2 | 748.9 | 721.1 | 690 | 652.8 | 610.4 | 553.4 | –
9900 kPa | 801 | 778.2 | 753.9 | 727.7 | 697.6 | 665.2 | 628.9 | 585 | 525
19700 kPa | 808.4 | 787 | 764.1 | 739.3 | 712.8 | 683.6 | 652.4 | 620.2 | 584.8
29500 kPa | 816 | 795 | 773.1 | 750.4 | 725.4 | 698.8 | 670.8 | 642 | 613.4
39300 kPa | 823.8 | 803.4 | 782.6 | 760.2 | 736 | 710.8 | 685.6 | 660.6 | 636
49100 kPa | 830 | 811 | 790.9 | 769.6 | 747.2 | 723.9 | 700 | 677.2 | 655
58900 kPa | 836.3 | 818.2 | 798.9 | 778.2 | 757 | 735 | 713 | 691.2 | 670
